Assay results published in publication PMC3090393, “New Noncovalent Inhibitors of Penicillin-Binding Proteins from Penicillin-Resistant Bacteria” (PLoS ONE, 2011).
Values after ≈ are worked out from the molar mass of the structure shown.

Columns and labels:
[1] = test system: Pseudomonas aeruginosa ATCC 27853; test: In-vitro antibacterial activity (MIC, broth microdilution); assay type: cell-based; settings: ATCC27853
Experimental: (§1) Determination of the antibacterial activities was carried out on microtiter plates, in 200 µL (final volume) of Müeller-Hinton Broth (MHB), following EUCAST (European Committee on Antimicrobial Susceptibility testing)/CLSI (Clinical and Laboratory Standard Institute) recommended procedures, [25]. The compounds were solubilized in MHB, just before use. Inocula were prepared for each strain by resuspending isolated colonies from 18 h cultured plates. Equivalents of 0.5 Mac Farland turbidity standards (approximately 1×10^8 CFU mL^−1) were prepared in saline solution ([…]) and then diluted 200-fold in MBH.

[2] = test system: Enterococcus hirae ATCC 8790; test: as above; assay type: cell-based; settings: ATCC8790
Experimental: as §1

[3] = test system: Citrobacter freundii ATCC 8090; test: as above; assay type: cell-based; settings: ATCC8090
Experimental: as §1

[4] = test system: Staphylococcus aureus mp 1 (inducible MRSA); test: as above; assay type: cell-based
Experimental: as §1

[5] = test system: Listeria innocua ATCC 33090; test: as above; assay type: cell-based; settings: ATCC33090
Experimental: as §1

[6] = test system: Enterococcus faecalis ATCC 7937; test: as above; assay type: cell-based; settings: ATCC7937
Experimental: as §1

[7] = test system: Escherichia coli ATCC 8739; test: as above; assay type: cell-based; settings: ATCC8739
Experimental: as §1

[8] = test system: Enterococcus faecalis ATCC 29212; test: as above; assay type: cell-based; settings: ATCC29212
Experimental: as §1

[9] = test system: Staphylococcus aureus ATCC 25923; test: as above; assay type: cell-based; settings: ATCC25923
Experimental: as §1

[10] = test system: Klebsiella pneumoniae ATCC 13883; test: as above; assay type: cell-based; settings: ATCC13883
Experimental: as §1

[11] = test system: Staphylococcus epidermidis ATCC 12228; test: as above; assay type: cell-based; settings: ATCC12228
Experimental: as §1

[12] = test system: Enterococcus faecium ATCC 19434; test: as above; assay type: cell-based; settings: ATCC19434
Experimental: as §1

[13] = test system: Streptococcus pneumoniae D39; test: as above; assay type: cell-based
Experimental: as §1

[14] = test system: Proteus mirabilis ATCC 29936; test: as above; assay type: cell-based; settings: ATCC29936
Experimental: as §1

[15] = test system: Staphylococcus aureus ATCC 43300 (MRSA); test: as above; assay type: cell-based
Experimental: as §1

[16] = test system: Listeria monocytogenes ATCC 14780; test: as above; assay type: cell-based; settings: ATCC14780
Experimental: as §1

[17] = test system: Bacillus subtilis ATCC 6633; test: as above; assay type: cell-based; settings: ATCC6633
Experimental: as §1

[18] = test system: Micrococcus luteus ATCC 9341; test: as above; assay type: cell-based; settings: ATCC9341
Experimental: as §1

[19] = test system: Streptococcus pneumoniae ATCC 33400; test: as above; assay type: cell-based; settings: ATCC33400
Experimental: as §1

[20] = test system: Streptococcus pneumoniae ATCC 49619; test: as above; assay type: cell-based; settings: ATCC49619
Experimental: as §1

PBP2a = target: T1, PBP2a (Staphylococcus aureus, UniProt P07944); test: PBP2a enzymatic inhibition assay (fluorescein-labeled ampicillin, residual penicillin binding activity); assay type: biochemical, Staphylococcus aureus ATCC 43300
T1 construct: made in house
Experimental: (§2) PBP2a from Staphylococcus aureus ATCC 43300 and PBP5fm from Enterococcus faecium D63r were overproduced and purified as described previously, [18].
(§3) Each of the purified PBPs (2.5 µM) were first incubated with 1 mM potential inhibitor in 100 mM phosphate buffer, 0.01% Triton X-100[19], pH 7, for 4 h at 30°C. Then, 25 µM fluorescein-labeled ampicillin[20] was added to detect the residual penicillin binding activity (RA). The samples were further incubated for 30 min at 37°C in a total volume of 20 µL. Denaturation buffer was added (0.1 M Tris/HCl, pH 6.8, containing 25% glycerol, 2% SDS, 20% β-mercaptoethanol and 0.02% bromophenol blue) and the samples were heated to 100°C for 1 min. The samples were then loaded onto a 10% SDS-acrilamide gel (10×7 cm) and electrophoresis was performed for 45 min at 180 V (12 mA). Detection and quantification of the RAs were with Molecular Image FX equipment and Quantity One software (BioRad, Hercules, CA, USA). Three independent experiments were carried out for each inhibitor.

PBP5fm = PBP5fm (Enterococcus faecium, UniProt Q47759); test: PBP5fm enzymatic inhibition assay (fluorescein-labeled ampicillin, residual penicillin binding activity); assay type: biochemical, Enterococcus faecium D63r
Experimental: as §2, §3

PBP2x 5204 = PBP2x 5204 (Streptococcus pneumoniae, UniProt P59676); test: PBP2x 5204 enzymatic inhibition assay (S2d hydrolysis, DTNB); assay type: biochemical, Streptococcus pneumoniae strain 5204; settings: residual activity of the enzyme at 1 mM inhibitor; 240 min
Experimental: PBP2x-5204 from Streptococcus pneumonia and N-benzoyl-D-alanyl-thioglycolate S2d[21], [22] were prepared as previously described. All assays with PBP2x 5204 were carried out in 96-well microtiter plates (Brand, Wertheim, Germany). PBP2x 5204 (0.6 µM) was incubated in the presence of the potential inhibitors in 10 mM sodium phosphate buffer (pH 7.0) containing 70 mM D-alanine and 0.01 mg/mL BSA, for 4 h at 25°C. This preincubation was used to also detect slow binding inhibitors. After the preincubation, the RA of PBP2x 5204 was determined. The initial rate of hydrolysis of 1 mM S2d in the presence of 1 mM DTNB was determined by monitoring the increase in absorbance at 412 nm (DTNB: ε[Δ ε] = […]) using a microplate absorbance reader (Power Wave X, Biotek Instruments, Winooski, U.S.A.). The rate of spontaneous hydrolysis of S2d in the presence of the potential inhibitors was also determined in the absence of PBP2x 5204. All of the assays were carried out in triplicate. The determination of the RA of PBP2x 5204 in the absence of inhibitors was carried out six times on each plate. A test compound was considered as an inhibitor if the RA was <80%. In this case, to reveal false positives, the assays were also carried out under the same conditions in the presence of 0.01% Triton X-100. As described in the literature, promiscuous inhibitors (false positives) are slow binding, noncompetitive inhibitors. To avoid detailed kinetic investigations, it is possible to identify such compounds by carrying out the assays in the presence of Triton X-100[14], [19]. Promiscuous inhibitors show no inhibition in the presence of Triton X-100. The IC50 values in the presence of Triton X-100 were determined if the RAs were <50%. (RA: ∼50%, IC50∼c, c: concentration of compound in the assay; RA >50%, IC50 > c). The RA was measured over a range of concentrations, from which the IC50 values were determined by non-linear regression analysis, using Sigma Plot (Systat software) and fitting the data to the equation y = y0+(a×b)/(b+x)[23].

[21] = test system: panel of five Gram-negative and 15 Gram-positive bacterial strains; test: In-vitro antibacterial activity (MIC), whole panel; assay type: cell-based; settings: summary over the whole panel; read-out: MICs for all of the bacterial strains under investigation
Experimental: as §1

[22] = in the presence of 0.01% Triton X-100

T1 sequence (P07944 whole entry): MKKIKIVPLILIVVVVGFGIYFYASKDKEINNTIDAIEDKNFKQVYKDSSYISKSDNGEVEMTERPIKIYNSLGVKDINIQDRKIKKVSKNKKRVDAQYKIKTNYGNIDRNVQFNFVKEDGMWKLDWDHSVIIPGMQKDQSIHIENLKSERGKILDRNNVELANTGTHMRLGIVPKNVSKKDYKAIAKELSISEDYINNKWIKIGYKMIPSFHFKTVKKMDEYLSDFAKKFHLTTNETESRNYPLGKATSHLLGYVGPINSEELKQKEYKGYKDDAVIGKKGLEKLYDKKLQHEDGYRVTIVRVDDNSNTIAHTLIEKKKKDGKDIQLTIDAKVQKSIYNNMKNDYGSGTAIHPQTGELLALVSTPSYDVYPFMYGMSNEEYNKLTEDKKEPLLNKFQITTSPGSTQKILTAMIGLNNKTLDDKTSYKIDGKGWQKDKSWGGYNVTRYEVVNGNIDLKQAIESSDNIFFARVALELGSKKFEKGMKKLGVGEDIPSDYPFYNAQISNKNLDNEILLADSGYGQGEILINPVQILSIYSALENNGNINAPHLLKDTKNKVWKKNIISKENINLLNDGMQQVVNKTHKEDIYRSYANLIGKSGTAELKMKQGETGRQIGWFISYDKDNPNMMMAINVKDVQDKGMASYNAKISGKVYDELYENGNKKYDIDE
Chain of PBP5fm (Q47759 entry or part of it): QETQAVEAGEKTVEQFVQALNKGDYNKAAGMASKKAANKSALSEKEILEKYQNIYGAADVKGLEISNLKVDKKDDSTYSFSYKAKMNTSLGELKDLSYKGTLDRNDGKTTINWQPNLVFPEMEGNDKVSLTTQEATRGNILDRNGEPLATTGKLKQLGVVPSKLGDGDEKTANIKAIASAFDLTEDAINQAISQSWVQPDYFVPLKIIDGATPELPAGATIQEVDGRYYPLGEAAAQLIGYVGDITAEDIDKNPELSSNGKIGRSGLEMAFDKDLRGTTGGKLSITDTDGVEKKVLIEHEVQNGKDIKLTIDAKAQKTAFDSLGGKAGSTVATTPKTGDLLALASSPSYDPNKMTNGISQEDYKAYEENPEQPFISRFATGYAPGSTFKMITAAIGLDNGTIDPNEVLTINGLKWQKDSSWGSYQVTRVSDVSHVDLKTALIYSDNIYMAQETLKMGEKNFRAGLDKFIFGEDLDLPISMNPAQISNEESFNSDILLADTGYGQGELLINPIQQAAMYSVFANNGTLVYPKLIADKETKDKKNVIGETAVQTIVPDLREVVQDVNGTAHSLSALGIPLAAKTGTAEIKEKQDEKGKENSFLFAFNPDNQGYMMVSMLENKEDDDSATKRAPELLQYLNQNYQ
Chain of PBP2x 5204 (P59676 49-750): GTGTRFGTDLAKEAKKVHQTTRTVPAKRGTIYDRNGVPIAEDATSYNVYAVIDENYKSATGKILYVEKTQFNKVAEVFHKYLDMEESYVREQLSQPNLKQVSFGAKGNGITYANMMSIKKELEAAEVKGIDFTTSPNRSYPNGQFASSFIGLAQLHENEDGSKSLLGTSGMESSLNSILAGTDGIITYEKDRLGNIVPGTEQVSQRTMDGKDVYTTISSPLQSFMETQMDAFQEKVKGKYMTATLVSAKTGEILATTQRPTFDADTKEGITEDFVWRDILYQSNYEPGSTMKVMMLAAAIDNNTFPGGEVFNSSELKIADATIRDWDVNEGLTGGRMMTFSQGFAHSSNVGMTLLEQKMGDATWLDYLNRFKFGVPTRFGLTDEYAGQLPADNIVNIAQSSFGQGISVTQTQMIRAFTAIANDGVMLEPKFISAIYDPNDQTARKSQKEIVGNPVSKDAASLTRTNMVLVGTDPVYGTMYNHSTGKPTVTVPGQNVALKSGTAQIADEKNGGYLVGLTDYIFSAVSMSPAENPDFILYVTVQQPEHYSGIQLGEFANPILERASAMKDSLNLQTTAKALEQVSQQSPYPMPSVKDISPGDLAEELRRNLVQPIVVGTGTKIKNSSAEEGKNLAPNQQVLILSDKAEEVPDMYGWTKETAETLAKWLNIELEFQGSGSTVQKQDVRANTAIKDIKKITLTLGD

Compound: CCCOc1cccc(C(=O)Nc2ccccc2C(=O)O)c1 [compound 12, 2-(3-Propoxybenzamido)benzoic acid]
- MIC [1]: > 512 µg/mL
- MIC [2]: 256 µg/mL (≈ 855 µM)
- MIC [3]: > 512 µg/mL
- MIC [4]: 512 µg/mL (≈ 1710 µM)
- MIC [5]: > 512 µg/mL
- MIC [6]: > 512 µg/mL
- MIC [7]: > 512 µg/mL
- MIC [8]: 256 µg/mL (≈ 855 µM)
- MIC [9]: 512 µg/mL (≈ 1710 µM)
- MIC [10]: > 512 µg/mL
- MIC [11]: 256 µg/mL (≈ 855 µM)
- MIC [12]: > 512 µg/mL
- MIC [13]: 256 µg/mL (≈ 855 µM)
- MIC [14]: > 512 µg/mL
- MIC [15]: 512 µg/mL (≈ 1710 µM)
- MIC [16]: > 512 µg/mL
- MIC [17]: > 512 µg/mL
- MIC [18]: 256 µg/mL (≈ 855 µM)
- MIC [19]: 256 µg/mL (≈ 855 µM)
- MIC [20]: 256 µg/mL (≈ 855 µM)
- remaining activity at 1000 µM (PBP2a; 4 h, residual activity of the enzyme at 1 mM inhibitor, 0.01% Triton X-100, mean of three experiments, read-out: PBP2a RA [%]): 47%
- IC50 (PBP2a; [22]): 910 µM
- activity at 1000 µM (PBP5fm; 4 h, residual activity of the enzyme at 1 mM inhibitor, 0.01% Triton X-100, read-out: PBP5fm RA [%]): 34%
- IC50 (PBP5fm; [22]): > 1000 µM
- PBP2x5204 RA [%] (PBP2x 5204): 97%
- MIC [21]: ≥ 256 µg/mL
